Key:
[1] = target: T1, E. coli α-D-Glucuronidase (Sigma, G7896) (Escherichia coli, UniProt P05804); test: Sensitivity of GUD assay (reaction rates by OD, spectrophotometric); assay type: biochemical
T1 construct: purchased Sigma G7896
Method: E. coli […] (Sigma, G7896) was diluted in PBS buffer containing 10 mM DTT and 0.1% Triton X-100 and either substrate p-nitrophenol glucuronide (Sigma N1627) or phenolsulphonphthaleinyl (or chlorophenol red) glucuronide of the present invention. The final concentration of each substrate was1 mM. The final concentration of GUD was 60 pM, 125 pM, 250 pM, 500 pM, or 1000 pM. Readings of Optical Density (OD) were measured at 415 nm for assay with p-nitrophenol glucuronide and at 574 nm for assay with chlorophenol red glucuronide. OD measurements were conducted over 30 minutes at 37° C. in a Beckman DU70 spectrophotometer and the reaction rates were determined in mOD/min. […] Therefore, the sensitivity of the GUD assay utilizing a substrate of the present invention as compared to the sensitivity of GUD assay with a conventional substrate.

[2] = target: T2, purified β-glucuronidase (Sigma G-7896) (Escherichia coli, UniProt P05804); test: Enzyme assay: suitability of the substrate for detecting β-glucuronidase; assay type: biochemical, E. coli; conditions: 50 MM sodium phosphate buffer, pH 7.0, 10 mM β-mercaptoethanol, 0.1% Triton X-100
T2 construct: purchased Sigma G-7896
Method: The suitability of the chlorophenol red β-D-glucuronic acid substrate (IVA) for detecting β-glucuronidase in a sample was tested following the procedure of Jefferson et al., PNAS (1986) Vol. 83, 8447-8451. The solid product (IVA) was dissolved in water to a final concentration of approximately 100 mM (red-orange product). An aliquot was added to 50 μM of purified β-glucuronidase (Sigma G-7896) in 50 MM sodium phosphate buffer, pH 7.0, 10 mM β-mercaptoethanol and 0.1% Triton X-100.

[3] = Solubility of the GUD substrates (statement); assay type: physicochemical; conditions: for liquid homogeneous assay formats

T1 sequence (P05804 whole entry): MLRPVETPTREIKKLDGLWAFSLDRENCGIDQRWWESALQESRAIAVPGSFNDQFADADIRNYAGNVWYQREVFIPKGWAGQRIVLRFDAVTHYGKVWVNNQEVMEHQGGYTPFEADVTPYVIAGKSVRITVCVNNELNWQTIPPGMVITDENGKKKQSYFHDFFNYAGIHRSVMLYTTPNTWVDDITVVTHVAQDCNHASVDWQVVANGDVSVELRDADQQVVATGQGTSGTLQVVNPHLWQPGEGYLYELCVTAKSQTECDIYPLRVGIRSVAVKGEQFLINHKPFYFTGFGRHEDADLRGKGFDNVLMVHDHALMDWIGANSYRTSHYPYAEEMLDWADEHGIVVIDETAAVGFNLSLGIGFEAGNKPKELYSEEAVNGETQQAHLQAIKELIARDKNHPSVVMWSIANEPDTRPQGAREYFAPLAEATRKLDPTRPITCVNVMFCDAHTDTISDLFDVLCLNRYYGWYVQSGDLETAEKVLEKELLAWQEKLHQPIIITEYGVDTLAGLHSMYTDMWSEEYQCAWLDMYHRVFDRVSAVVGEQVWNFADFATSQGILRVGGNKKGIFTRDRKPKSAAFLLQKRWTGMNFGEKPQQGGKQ
T2 sequence (P05804 whole entry): as above

O=C1C=C/C(=C(/c2ccc(OC3OC(C(=O)O)[C@@H](O)C(O)C3O)c(Cl)c2)c2ccccc2S(=O)(=O)[O-])C=C1Cl.[Na+] (stereo partly drawn) [IVA, Chlorophenol Red β-D-Glucuronic Acid]
Reaction rate (mOD/min) relative to the nitrophenol-glucuronide substrate ([1]; each substrate 1 mM, GUD 60-1000 pM, 37° C., 30 minutes, OD at 574 nm vs 415 nm): 5.76 fold | Signal intensity relative to nitro-phenol glucuronide (FIG. 1) ([1]; identical amounts of GUD added to each substrate): about six-fold | Suitability as substrate: appearance of a violet product with absorbance maximum at 575 nm [2]: suitable for the detection of β-glucuronidase | Solubility [3]: highly soluble

Reference: patent US6534637B2, “Synthesis of chlorophenol red glucuronic acid” (Beckman Coulter, Inc., priority 2001, dated 2003)
